In patent EP0729362B1, “TRANSDERMAL COMPOSITION OF N- N- 5- 4-(AMINOIMINOMETHYL)PHENYL]-1-OXOPENTYL]-L-alpha-ASPARTYL]-L-PHENYLALANINE OR ITS ESTERS AND THEIR PHARMACEUTICALLY ACCEPTABLE SALTS” (G.D. SEARLE & CO., priority 1993, dated 1995):

Experiment: transdermal shaved rat model: delivery of tritiated compound from a gel patch, counted in urine and feces
Type: in vivo, Rats
Conditions: 2.5 cm^2 patch
From the text: Rats were anesthetized with N2O/O2 and [sequence] fluorocarbon anesthesia using a metering device (Quantifier VMC Anesthesia Machine, Matrix Media Inc.) The rat's back was carefully shaved using an electric razor the day before the transdermal experiment, and no abrasions in the skin surface were apparent.
Compound was applied to the skin using a Hilltop Chamber® transdermal delivery plastic device, in which the compound was contained in a 3% hydroxypropyl cellulose gel. The device was glued in place using cyanomethacrylate (Superbinder 495, Newark Electronics).
The aqueous formulation was 2% in N-[N-[5-[4-(aminoiminomethyl)phenyl]-1-oxopentyl]-L-α-aspartyl]-L-phenylalanine, monohydrochloride (10 mg N-[N-[5-[4-(aminoiminomethyl)phenyl]-1-oxopentyl]-L-α-aspartyl]-L-phenylalanine, monohydrochloride 0.5 ml gel/2.5 cm^2 patch). […] The amount of compound in a sample was calculated from the number of counts detected and the specific radioactivity of the compound in the patch.
Urine and feces were collected daily after patch application as indicated in the Table I. Counts were combined to achieve the total amount delivered. Urine was counted directly by scintillography (Hionic Fluid, Packard Co., Mark III), while feces, were processed by mechanical mixing in saline followed by oxidization of a dried aliquot to tritiated water in an oxidizer (Oxidizer Machine, Packard).

| average amount delivered (urine and feces counts combined for the total amount delivered) [mg] | average amount delivered into the urine (amount calculated from [3H] counts) [mg] | Compound |
| --- | --- | --- |
| 4.6 ± 1.9 | – | CCOC(=O)C[C@H](NC(=O)CCCCc1ccc(C(=N)N)cc1)C(=O)N[C@@H](Cc1ccccc1)C(=O)OCC [N-[N-[5-[4-(aminoiminomethyl)phenyl]-1-oxopentyl]-L-α-aspartyl]-L-phenylalanine diethyl ester] |
| – | 48 | N-[N-[5-[4-(aminoiminomethyl)phenyl]-1-oxopentyl]-L-α-aspartyl]-L-phenylalanine, monohydrochloride |
